Among the data in ChEMBL document CHEMBL1156260, “Through the "gatekeeper door": exploiting the active kinase conformation” (J Med Chem, 2010) are IC50 values, retold here.

The assay deals with Serine/threonine-protein kinase PLK1 (Homo sapiens, UniProt P53350).

What is called pIC50 is the IC50 on a negative log10 scale, so that one unit is a factor of ten.

pIC50: −log10 of the molar value.

Chain of Serine/threonine-protein kinase PLK1 (P53350 whole entry): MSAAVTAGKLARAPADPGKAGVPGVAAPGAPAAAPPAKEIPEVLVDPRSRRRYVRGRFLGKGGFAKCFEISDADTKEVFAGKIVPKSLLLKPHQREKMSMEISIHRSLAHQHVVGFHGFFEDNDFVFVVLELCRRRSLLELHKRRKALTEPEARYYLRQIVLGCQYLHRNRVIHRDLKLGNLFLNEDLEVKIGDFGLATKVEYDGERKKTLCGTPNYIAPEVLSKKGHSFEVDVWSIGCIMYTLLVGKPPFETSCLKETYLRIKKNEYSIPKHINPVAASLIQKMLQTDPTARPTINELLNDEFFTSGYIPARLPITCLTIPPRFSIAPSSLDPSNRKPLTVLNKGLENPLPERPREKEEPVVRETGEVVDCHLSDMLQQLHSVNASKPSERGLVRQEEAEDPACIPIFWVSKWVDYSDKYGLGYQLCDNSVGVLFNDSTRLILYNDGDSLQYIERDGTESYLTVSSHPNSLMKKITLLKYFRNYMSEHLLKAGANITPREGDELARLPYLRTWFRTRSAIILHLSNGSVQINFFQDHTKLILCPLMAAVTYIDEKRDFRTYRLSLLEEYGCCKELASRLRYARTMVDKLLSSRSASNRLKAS

`Cc1cc(NC(=O)Nc2ncc(CCNc3cc(Nc4nnc[nH]4)ncn3)s2)c(C(F)(F)F)o1` showed a pIC50 of 6.14.
